Here are results for 6 compounds from patent US6599917B1, “Quinuclidine compounds and drugs containing the same as the active ingredient” (priority 1999, dated 2003).

For assay [1], the system named is cholesterol biosynthesis. Put plainly: Measurement of cholesterol biosynthesis inhibitive activity in a rat liver cell. In kind it is cell-based. To be noted: isolated rat liver cells, [1-14C]acetic acid added 10 minutes after the specimen. On the procedure: (§1) Measurement of Cholesterol and Triglyceride Biosynthesis Inhibitive Activities in a Rat Liver Cell
(§2) A liver cell was isolated from a male SD rat according to a usual method (collagenase perfusion method) and subjected to an experiment.
(§3) The isolated liver cells were planted in an amount of 500 μ1 every well on a Type collagen coated 24 well plate (cell density: 4×10^5 cell/ml). As the cell culture solution, a Williams'E medium (adjusted to pH 7.4) containing 10% FCS, 1 μM insulin, 1 μM dexamethasone, 100 units/ml penicillin and 10 μg/ml streptomycin was used. After the liver cells were incubated in a CO2 incubator for 2 hours, unstuck cells were removed and the liver cells were further incubated overnight.
(§4) After the culture medium was exchanged, the specimen diluted in a 10% DMSO-90% cell culture solution was added to each well in an amount of 5 μ1. DMSO (final concentration: 0.1%) was added to a control group. A [1-^14C]Acetic acid, sodium salt (5 μCi/well) was added to the media 10 minutes and 4 hours after the specimen was added for the measurement of cholesterol synthesis inhibitive action and for the measurement of triglyceride synthesis inhibitive action respectively, followed by culturing for further 2 hours.
(§5) After the cultivation was finished, the supernatant was removed and the cells were washed using PBS(−)(Phosphate buffered saline (Ca^2+, Mg^2+free) twice. Hexane/isopropyl alcohol (3:2, v/v) was added to the cells and the cells were then allowed to stand for 10 minutes to extract intracellular lipid. The extract was transferred to a glass tube and exsiccated under a nitrogen gas stream. Further, the exsiccated extract was washed with 25 mL of petroleum ether and then dissolved in petroleum ether containing the following components: 0.01% squalene, 0.3% free cholesterol, 0.3% cholesterol acetate, 0.1% triolein, 0.01% farnesol and 0.3% lanosterol.
(§6) The resulting solution was spotted on a TLC plate to perform an isolating operation. The spotted solution was developed for 10 minutes by using toluene/isopropyl ether (1:1, v/v) as the solvents and for further 15 minutes by using heptane in place of the above solvent after it was dried using air.
(§7) After the development was finished, the TLC plate was subjected to iodine color development. After each position of free cholesterol and triolein which were used as standards was confirmed, the image of the TLC plate was transferred to a BAS 2000 (Fuji Film) imaging plate by exposure performed for 16 hours. This transferred image was analyzed using a BAS 2000 IP Reader and an Imaging analyzer II to measure radiative activities contained in the free cholesterol and triglyceride fractions.
(§8) The cholesterol biosynthesis inhibitive activity was expressed by a concentration (IC50) at which 50% of the radiative activity of the control group was inhibited and the triceride biosynthesis inhibitive activity was expressed by an inhibition rate (%) to the control group.

In assay [2] the test system is triglyceride biosynthesis. Put plainly: Measurement of triglyceride biosynthesis inhibitive activity in a rat liver cell. The assay is classed as cell-based. To be noted: for Triglyceride biosynthesis inhibitive activity inhibition in 1 μM of the specimen: isolated rat liver cells, [1-14C]acetic acid added 4 hours after the specimen, inhibition rate to control group; for inhibition at 1 µM: Rattus norvegicus, 6 h, read-out: Triglyceride biosynthesis inhibitive activity inhibition in 1 μM of the specimen. On the procedure:
as §1, §2, §3, §4, §5, §6, §7, §8

Assay [3] concerns the target T1, squalene synthesizing enzyme (Rattus norvegicus, UniProt Q02769).
T1 construct: The liver was excised from a male Spraugue-Dawly rat; from tissue; host or cells: liver microsome fraction of male Sprague-Dawley rat (8 to 9 weeks)
T1 sequence (Q02769 1-416): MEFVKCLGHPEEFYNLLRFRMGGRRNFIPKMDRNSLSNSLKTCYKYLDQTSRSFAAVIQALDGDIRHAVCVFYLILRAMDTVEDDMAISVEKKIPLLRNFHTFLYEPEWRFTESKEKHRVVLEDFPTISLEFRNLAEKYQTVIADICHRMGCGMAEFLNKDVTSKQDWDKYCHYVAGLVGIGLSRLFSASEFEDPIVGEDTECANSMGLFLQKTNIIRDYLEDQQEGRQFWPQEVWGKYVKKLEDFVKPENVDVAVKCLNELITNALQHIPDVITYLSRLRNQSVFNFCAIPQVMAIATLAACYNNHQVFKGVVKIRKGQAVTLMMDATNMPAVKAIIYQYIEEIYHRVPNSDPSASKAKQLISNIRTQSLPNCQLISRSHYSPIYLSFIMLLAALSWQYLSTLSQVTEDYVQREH
Nature of the assay: Measurement of squalene synthesizing enzyme inhibitive activity by using a rat liver microsome. In kind it is biochemical. To be noted: [3H]-farnesylpyrophosphoric acid. On the procedure:
Measurement of Squalene Synthesizing Enzyme Inhibitive Activity by Using a Rat Liver Microsome
(I) The reaction was run on a scale of 500 μ1. 200 µl of a solution containing 125 mM tris-hydrochloric acid (pH: 7.3), 2.5 mM magnesium chloride, 5 mM potassium fluoride and 10 mM reduction type nicotinamidoadenine dinucleotide phosphoric acid, 100 µl of the specimen solution with a 5-fold concentration, 100 µl of distilled water and 50 µl of 0.4 to 1 mg/ml rat liver microsome prepared by the following method were mixed.
(II) The above mixture was pre-incubated at 37° C. for 10 minutes and thereafter, 50 µl of 100 μM [^3H]-farnesylpyrophosphoric acid (30 mCi/mmol, NEN) was added to the mixture to start a reaction. The reaction was continued at 37° C. for 10 minutes. 1 ml of ethanol was added to the resulting mixture to terminate the reaction and then 1 ml of distilled water and 3 ml of petroleum ether were added to the reaction solution, which was then shaken for 30 minutes. The water phase was separated from the oil phase, the water phase was frozen at −70° C. in dry ice/methanol and the radiative activity of the organic phase was measured using a liquid scintillator. Or the organic phase was evaporated to dryness using nitrogen gas and the residue was dissolved as a marker in 25 µl of chloroform containing squalene, farnesol and cholesterol. This sample was spotted on a TCL plate (Merck) and developed using heptane for 15 to 20 minutes. A band of squalene was cut from the plate to measure the radiative activity by using a liquid scintillation counter. The data was expressed by a concentration (IC50) at which 50% of the radiative activity of a control group was inhibited.
Method of the Preparation of a Rat Liver Microsome
The following operations were all carried out on ice and the centrifugation was performed at 4° C. The liver was excised from a male Spraugue-Dawly rat (hereinafter referred to as SD rat) (8 to 9 weeks age) and perfused with 1.15% potassium chloride to remove the blood. Then, the liver was minced using a forceps and the minced liver was homogenized using a Teflon homogenizer. The resulting sample was centrifuged at 16000×g twice for 15 minutes. The supernatant was further centrifuged at 105000×g for 60 minutes. The obtained deposit was determined as a microsome fraction, which was then suspended in a 25 mM tris-hydrochloric acid solution. The concentration of protein was measured quantitatively by a Bradford method and the concentration of protein was adjusted to 20 mg/ml by using the same solution. The resulting solution was stored at […].

Assay [4] relates to cholesterol biosynthesis. Nature of the assay: Measurement of cholesterol biosynthesis inhibitive activity in a rat. The assay is classed as in vivo. To be noted: 2 h; male SD rat, oral, dose 1 mg/kg, inhibition rate to control group. On the procedure:
Measurement of Cholesterol Biosynthesis Inhibitive Activity in a Rat
(I) An SPF grade male SD rat (4 weeks age, SLC) was bred for more than one week in a day-night-reversal room and subjected to an experiment made in the daytime. The compound dissolved in a 2% Tween 80 solution was administered (5 ml/kg) to the rat using an oral sonde. After one hour, a [1-^14C]Acetic acid, sodium salt (1.67-2.22 GBq/mmol, 37 MBq/ml, NEN) prepared by diluting to 1.85 MBq/ml by using physiological saline was intraabdominally administered (300 μ1/animal). After one hour, the rat was anesthetized by diethyl ether to carry out exsanguination from the aorta abdominalis. The collected blood was centrifuged at 3000 rpm for 10 minutes to prepare blood plasma.
(II) 1 ml of 4N KOH and 1 ml of ethanol were added to 2 ml of the blood plasma, which was then incubated at 65° C. for one hour and there after, 3 ml of petroleum ether was added. The plasma was shaken for 30 minutes. After the water phase was separated from the organic phase by centrifugation, it was frozen at −80° C. and the radiative activity of the organic phase was measured using a liquid scintillation counter. Or the organic phase was evaporated to dryness using nitrogen gas and the residue was dissolved as a marker in 25 µl of chloroform containing squalene, farnesol and cholesterol. This sample was applied to a TCL plate (Merck) and developed using toluene and isopropyl ether (1:1) for 15 to 20 minutes. A band of cholesterol was cut from the plate to measure the radiative activity by using a liquid scintillation counter. The cholesterol biosynthesis inhibition activity was expressed by an inhibition rate (%) to a control group.

As to `CO[C@H]1CN(c2ccc(C#C[C@@]3(O)CN4CCC3CC4)c(Cc3ccccc3)n2)C[C@H]1OC` (relative stereo) [Example 120, (3R)-3-[2-Benzyl-6-(cis-3,4-dimethoxyprrolidine-1-yl)-3-pyridyl]ethynyl-3-quinuclidinol], the half-maximal inhibitory concentration (IC50) in assay [1] was 75 nM. Moreover, the “Triglyceride biosynthesis inhibitive activity inhibition in 1 μM of the specimen” value in assay [2] is listed as 80%.
For the compound `CO[C@H]1C(=O)N(c2ccc(C#C[C@@]3(O)CN4CCC3CC4)c(Cc3ccccc3)n2)C[C@H]1O` [Example 124, (3R)-3-[2-Benzyl-6-[(3R,4R)-4-hydroxy-3-methoxy-2-pyrrolidinone-1-yl]-3-pyridyl]ethynyl-3-quinuclidinol], the results for the half-inhibitory concentration (IC50) in assay [3] and in assay [1] (10 min) were 1.8 nM and 81 nM, respectively. For the same compound, the inhibition at 1 µM in assay [2] was determined as 79%.
Take `O[C@]1(C#Cc2ccc(OCCCF)nc2Cc2ccccc2)CN2CCC1CC2` [Example 150, (3R)-3-[2-Benzyl-6-(3-fluoropropyl)oxy-3-pyridyl]ethynyl-3-quinuclidinol]: in assay [4], the inhibition in vivo at 1 mg/kg was 73%. Also, the inhibition at 1 µM in assay [2] turned out to be 80%.
As to `O[C@]1(C#Cc2ccc(OCC3OCCO3)nc2Cc2ccccc2)CN2CCC1CC2` [Example 153, (3R)-3-[2-Benzyl-6-(1,3-dioxolan-2-yl)methyloxy-3-pyridyl]ethynyl-3-quinuclidinol], the IC50 in assay [3] turned out to be 11 nM; in assay [1] (10 min) it was 55 nM. The compound also had an inhibition in vivo at 1 mg/kg in assay [4] of 82%. Also, the inhibition at 1 µM in assay [2] is 85%.
`O[C@]1(C#Cc2cnc(-c3ccccn3)cc2Cc2ccccc2)CN2CCC1CC2` [Example 179, (3R)-3-[4-Benzyl-2-(2-pyridyl)-5-pyridyl]ethynyl-3-quinuclidinol] showed a half-inhibitory concentration (IC50) in assay [1] (10 min) of 130 nM. Also, in assay [2], the inhibition at 1 µM came to 84%.
For “(3R)-3-[Benzyl-6-(3,3-ethylenedioxypyrrolidine-1-yl]-3-pyridyl]ethynyl-3-quinuclidinol [Example 118]”, the figures for the IC50 in assay [3] and in assay [1] were 2.5 nM and 75 nM, respectively. For the same compound, the “Triglyceride biosynthesis inhibitive activity inhibition in 1 μM of the specimen” value in assay [2] is recorded as 85%.

In general, IC50 refers to the point on the concentration scale where inhibition reaches its midpoint. A high value points to a need for much substance. As usually defined, the inhibition is the percentage by which the read-out fell short of the control. The inhibition in vivo is the drop in the measured response relative to a control, in per cent. Low values mean a response near the control, high ones a response far below the control.
